Source: ChEMBL document CHEMBL1201862, “PubChem BioAssay data set” (2004)
Calls of active or inactive are those of the source.

Legend:
[1] = A cytotoxicity screen of small molecule inhibitors of the PhoP region in Salmonella typhi identified in the primary screen. [Related pubchem assays: 1850, 1864, 1985 ]; assay type: functional
[2] = target: T1, Heat shock factor protein 1 (Mus musculus, UniProt P38532); assay: inhibition of MG132-induced HSE-luciferase signal, confirmation, cell-based, NIH3T3, luminescence, dose retest (AID 2382); assay type: functional;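 note: NIH3T3 fibroblasts with HSF1-driven luciferase reporter stressed by proteasome inhibitor MG132; luminescence from HSF1-driven luciferase expression after 8 hours of MG132 stress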
T1 sequence (P38532 whole entry): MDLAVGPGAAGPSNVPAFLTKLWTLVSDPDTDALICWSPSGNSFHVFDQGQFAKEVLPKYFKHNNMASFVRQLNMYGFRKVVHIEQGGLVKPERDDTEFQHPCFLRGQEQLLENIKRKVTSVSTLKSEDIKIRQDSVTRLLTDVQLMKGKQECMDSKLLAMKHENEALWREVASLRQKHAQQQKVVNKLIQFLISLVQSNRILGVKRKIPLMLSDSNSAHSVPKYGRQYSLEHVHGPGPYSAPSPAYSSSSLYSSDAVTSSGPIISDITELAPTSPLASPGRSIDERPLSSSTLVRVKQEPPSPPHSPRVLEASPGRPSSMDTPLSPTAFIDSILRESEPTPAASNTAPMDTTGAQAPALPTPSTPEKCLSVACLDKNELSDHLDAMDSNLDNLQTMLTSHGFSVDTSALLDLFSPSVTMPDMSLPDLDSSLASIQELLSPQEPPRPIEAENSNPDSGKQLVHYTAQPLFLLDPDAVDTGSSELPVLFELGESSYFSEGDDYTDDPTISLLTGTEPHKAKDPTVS

[3] = target: Induced myeloid leukemia cell differentiation protein Mcl-1 (Homo sapiens, UniProt Q07820); assay type: functional
Chain of Induced myeloid leukemia cell differentiation protein Mcl-1 (Q07820 whole entry): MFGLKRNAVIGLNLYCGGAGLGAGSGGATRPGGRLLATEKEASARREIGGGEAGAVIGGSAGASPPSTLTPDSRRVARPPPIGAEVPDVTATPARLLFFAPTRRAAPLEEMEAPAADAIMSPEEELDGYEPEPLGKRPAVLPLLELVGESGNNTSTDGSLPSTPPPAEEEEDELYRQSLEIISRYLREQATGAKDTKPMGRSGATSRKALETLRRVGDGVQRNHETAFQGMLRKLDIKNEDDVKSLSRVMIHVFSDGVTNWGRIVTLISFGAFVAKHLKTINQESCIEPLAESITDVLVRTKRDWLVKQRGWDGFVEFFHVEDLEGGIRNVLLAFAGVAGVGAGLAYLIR

[4] = target: T2, Short transient receptor potential channel 4 (Mus musculus, UniProt Q9QUQ5); assay: mouse TRPC4 channel inhibitors, dose response, cell-based, HEK293 TRPC4/mu-opioid, Fluo-4 calcium (AID 434942); assay type: functional;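 note: potency of inhibitors blocking the TRPC4 calcium response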
T2 sequence (Q9QUQ5 whole entry): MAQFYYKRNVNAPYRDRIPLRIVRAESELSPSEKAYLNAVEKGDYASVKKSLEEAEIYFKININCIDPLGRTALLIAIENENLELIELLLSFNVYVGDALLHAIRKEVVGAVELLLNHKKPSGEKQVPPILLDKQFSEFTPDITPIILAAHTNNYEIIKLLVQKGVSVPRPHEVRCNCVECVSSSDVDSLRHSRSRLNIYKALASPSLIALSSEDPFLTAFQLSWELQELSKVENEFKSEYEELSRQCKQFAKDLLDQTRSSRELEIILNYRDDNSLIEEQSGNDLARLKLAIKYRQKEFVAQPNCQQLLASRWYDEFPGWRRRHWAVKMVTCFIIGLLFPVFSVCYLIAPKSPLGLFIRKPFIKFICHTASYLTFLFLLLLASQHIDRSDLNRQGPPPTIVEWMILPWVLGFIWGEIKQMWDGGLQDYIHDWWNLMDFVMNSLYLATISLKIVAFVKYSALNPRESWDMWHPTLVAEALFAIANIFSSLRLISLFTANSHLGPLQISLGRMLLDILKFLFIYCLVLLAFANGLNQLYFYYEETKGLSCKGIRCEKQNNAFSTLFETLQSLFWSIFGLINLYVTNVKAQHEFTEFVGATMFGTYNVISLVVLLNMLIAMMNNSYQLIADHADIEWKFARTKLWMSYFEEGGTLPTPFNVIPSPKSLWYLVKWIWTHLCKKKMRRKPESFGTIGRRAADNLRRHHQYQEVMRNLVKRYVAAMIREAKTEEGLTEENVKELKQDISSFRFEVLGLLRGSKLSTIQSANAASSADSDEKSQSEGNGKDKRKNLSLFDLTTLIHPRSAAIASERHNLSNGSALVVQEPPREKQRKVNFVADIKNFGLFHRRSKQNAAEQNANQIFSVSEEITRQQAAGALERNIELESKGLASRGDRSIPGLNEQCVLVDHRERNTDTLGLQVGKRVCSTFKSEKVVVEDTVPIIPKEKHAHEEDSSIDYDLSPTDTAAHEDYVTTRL

[5] = target: Eukaryotic translation initiation factor 4E (Mus musculus, UniProt P63073); assay: eIF4E–eIF4G protein interaction inhibitors, dose response, biochemical, TR-FRET (AID 855); assay type: functional;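 note: potency for disrupting eIF4E binding to eIF4GI seen as loss of FRET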
Chain of Eukaryotic translation initiation factor 4E (P63073 whole entry): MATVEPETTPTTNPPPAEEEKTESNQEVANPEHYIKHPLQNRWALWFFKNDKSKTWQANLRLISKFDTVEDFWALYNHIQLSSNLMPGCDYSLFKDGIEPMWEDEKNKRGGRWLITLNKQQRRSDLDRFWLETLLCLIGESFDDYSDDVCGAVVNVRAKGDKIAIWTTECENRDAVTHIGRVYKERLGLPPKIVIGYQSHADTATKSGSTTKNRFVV

[6] = target: DNA dC->dU-editing enzyme APOBEC-3A (Homo sapiens, UniProt P31941); assay: Dose Response confirmation of small molecule APOBEC3A DNA Deaminase Inhibitors via a fluorescence-based single-stranded DNA deaminase assay. [Related pubchem assays (depositor defined):AID493011, AID493024]; assay type: functional
Chain of DNA dC->dU-editing enzyme APOBEC-3A (P31941 whole entry): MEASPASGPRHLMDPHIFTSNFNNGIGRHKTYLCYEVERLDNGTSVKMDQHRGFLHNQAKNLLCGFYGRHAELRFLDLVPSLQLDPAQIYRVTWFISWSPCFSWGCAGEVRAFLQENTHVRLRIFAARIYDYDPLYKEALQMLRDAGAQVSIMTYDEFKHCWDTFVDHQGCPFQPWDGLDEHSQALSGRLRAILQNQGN

[7] = target: DNA dC->dU-editing enzyme APOBEC-3G (Homo sapiens, UniProt Q9HC16); assay type: functional;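 note: Dose-response counterscreen measuring inhibition of APOBEC3G DNA deaminase activity, run while confirming APOBEC3A inhibitors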
Chain of DNA dC->dU-editing enzyme APOBEC-3G (Q9HC16 whole entry): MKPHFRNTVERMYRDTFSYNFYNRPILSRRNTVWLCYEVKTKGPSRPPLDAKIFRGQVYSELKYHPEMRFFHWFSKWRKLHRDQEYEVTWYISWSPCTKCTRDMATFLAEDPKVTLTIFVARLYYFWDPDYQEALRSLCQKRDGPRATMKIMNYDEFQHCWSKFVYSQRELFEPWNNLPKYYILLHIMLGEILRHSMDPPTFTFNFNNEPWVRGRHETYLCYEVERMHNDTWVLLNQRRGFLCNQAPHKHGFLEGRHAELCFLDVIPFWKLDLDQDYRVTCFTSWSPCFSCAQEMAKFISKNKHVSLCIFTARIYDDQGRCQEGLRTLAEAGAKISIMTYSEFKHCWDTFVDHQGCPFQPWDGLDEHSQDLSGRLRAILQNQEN

[8] = target: T3, Polyadenylate-binding protein 1 (Homo sapiens, UniProt P11940); assay: PABP1 MLLE–PAM2 binding inhibitor potency, dose response, biochemical, fluorescence polarization, FITC-PAM2 peptide (AID 602259); assay type: functional; conditions: read-out: IC50_Mean
T3 sequence (P11940 whole entry): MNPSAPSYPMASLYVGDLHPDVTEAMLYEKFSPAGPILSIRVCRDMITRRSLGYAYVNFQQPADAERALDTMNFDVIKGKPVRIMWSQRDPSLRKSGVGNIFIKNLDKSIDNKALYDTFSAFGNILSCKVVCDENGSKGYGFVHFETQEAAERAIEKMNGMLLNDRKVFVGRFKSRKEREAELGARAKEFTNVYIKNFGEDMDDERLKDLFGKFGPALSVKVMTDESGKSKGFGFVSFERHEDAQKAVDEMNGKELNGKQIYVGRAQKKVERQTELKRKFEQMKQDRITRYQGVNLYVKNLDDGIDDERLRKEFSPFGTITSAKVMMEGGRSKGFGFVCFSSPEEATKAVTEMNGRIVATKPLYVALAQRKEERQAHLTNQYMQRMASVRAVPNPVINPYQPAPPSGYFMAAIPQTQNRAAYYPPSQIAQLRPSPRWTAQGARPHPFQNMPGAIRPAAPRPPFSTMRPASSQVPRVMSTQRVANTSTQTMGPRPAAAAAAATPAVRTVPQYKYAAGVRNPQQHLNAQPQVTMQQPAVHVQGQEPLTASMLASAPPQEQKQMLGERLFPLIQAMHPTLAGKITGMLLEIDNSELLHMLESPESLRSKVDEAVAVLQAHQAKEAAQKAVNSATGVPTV

[9] = target: T3, Polyadenylate-binding protein 1; assay: PABP1 MLLE–PAM2 interaction inhibitors, dose response, miRNA deadenylation inhibitor project, biochemical, fluorescence polarization, Cy5-PAM2 peptide, secondary (AID 602260); assay type: functional; conditions: read-out: IC50_Mean
[10] = target: Peroxisome proliferator-activated receptor gamma/Nuclear receptor coactivator 2 (Homo sapiens, UniProt P37231); assay type: functional;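 note: agonist potency for raising coactivator recruitment to the receptor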
[11] = target: Peroxisome proliferator-activated receptor gamma/Nuclear receptor coactivator 3 (Homo sapiens, UniProt P37231); assay type: functional;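 note: agonist potency for raising coactivator recruitment to the receptor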
[12] = target: Peroxisome proliferator-activated receptor gamma/Nuclear receptor coactivator 1 (Homo sapiens, UniProt P37231); assay type: functional;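 note: agonist potency as compounds enhance coactivator SRC-1 recruitment to PPARgamma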
Chain of Peroxisome proliferator-activated receptor gamma/Nuclear receptor coactivator 1 (P37231 whole entry, the tested form may be a part): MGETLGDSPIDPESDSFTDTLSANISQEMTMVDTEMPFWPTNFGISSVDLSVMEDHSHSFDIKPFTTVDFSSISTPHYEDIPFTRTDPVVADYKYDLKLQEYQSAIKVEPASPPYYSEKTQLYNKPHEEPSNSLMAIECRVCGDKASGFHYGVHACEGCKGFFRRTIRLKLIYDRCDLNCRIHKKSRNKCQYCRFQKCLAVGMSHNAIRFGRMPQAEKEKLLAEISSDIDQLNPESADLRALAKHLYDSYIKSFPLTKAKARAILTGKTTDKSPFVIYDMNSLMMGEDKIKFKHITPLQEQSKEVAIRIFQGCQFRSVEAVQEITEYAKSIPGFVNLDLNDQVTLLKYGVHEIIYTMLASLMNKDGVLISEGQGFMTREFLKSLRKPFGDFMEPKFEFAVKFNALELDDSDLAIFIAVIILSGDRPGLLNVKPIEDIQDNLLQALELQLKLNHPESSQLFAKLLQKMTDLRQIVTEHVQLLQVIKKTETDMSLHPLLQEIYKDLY
Chain of Peroxisome proliferator-activated receptor gamma/Nuclear receptor coactivator 1 (Q15788 whole entry, further chain, the tested form may be a part): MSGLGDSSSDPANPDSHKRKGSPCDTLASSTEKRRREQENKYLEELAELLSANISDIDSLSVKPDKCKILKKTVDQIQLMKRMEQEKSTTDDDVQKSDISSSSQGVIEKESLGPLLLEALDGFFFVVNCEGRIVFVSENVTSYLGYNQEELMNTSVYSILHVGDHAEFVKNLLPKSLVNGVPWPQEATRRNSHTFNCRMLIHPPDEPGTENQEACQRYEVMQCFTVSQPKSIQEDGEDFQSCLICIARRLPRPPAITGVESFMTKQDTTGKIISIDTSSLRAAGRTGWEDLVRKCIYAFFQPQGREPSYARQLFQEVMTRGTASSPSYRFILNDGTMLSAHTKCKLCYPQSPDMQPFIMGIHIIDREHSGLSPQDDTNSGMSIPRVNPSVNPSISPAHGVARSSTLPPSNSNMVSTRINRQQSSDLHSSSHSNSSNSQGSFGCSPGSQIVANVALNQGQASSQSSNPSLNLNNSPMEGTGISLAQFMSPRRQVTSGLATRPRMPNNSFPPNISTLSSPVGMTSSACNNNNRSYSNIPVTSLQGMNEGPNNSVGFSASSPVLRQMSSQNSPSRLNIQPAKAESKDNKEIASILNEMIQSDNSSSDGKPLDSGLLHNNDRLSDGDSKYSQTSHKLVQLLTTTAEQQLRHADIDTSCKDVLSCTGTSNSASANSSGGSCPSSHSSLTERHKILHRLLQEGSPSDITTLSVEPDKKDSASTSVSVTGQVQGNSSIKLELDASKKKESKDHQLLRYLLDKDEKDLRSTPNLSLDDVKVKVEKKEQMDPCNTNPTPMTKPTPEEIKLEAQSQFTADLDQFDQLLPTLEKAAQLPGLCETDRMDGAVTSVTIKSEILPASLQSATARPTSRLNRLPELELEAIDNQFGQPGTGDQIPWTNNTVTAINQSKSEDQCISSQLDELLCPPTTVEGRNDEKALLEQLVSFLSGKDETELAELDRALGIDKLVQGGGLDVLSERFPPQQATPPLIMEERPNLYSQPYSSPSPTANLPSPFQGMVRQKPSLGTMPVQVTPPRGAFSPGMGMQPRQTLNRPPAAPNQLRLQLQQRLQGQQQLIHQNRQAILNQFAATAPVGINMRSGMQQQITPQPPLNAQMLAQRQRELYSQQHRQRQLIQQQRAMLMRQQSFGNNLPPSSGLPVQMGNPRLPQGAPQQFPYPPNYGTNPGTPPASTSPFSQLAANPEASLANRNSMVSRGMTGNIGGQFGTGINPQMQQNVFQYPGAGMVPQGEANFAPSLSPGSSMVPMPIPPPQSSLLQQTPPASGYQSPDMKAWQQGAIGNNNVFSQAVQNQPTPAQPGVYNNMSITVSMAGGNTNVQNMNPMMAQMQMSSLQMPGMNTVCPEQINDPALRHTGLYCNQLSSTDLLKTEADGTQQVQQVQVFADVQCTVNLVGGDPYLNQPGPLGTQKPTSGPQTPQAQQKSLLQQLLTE

[13] = target: T4, Carboxy-terminal domain RNA polymerase II polypeptide A small phosphatase 1 (Homo sapiens, UniProt Q9GZU7); assay: inhibitors of CTDSP1, concentration-response testing, biochemical assay, absorbance-based, actives from ultra-high-throughput screening (AID 540297); assay type: functional
T4 sequence (Q9GZU7 whole entry): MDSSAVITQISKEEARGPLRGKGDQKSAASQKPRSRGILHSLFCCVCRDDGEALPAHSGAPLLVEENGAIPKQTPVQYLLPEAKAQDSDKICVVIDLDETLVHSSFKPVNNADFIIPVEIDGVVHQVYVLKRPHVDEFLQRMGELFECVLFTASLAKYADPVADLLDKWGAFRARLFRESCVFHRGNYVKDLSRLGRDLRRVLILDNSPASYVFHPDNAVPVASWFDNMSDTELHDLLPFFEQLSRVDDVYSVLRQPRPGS

[14] = HepG2 cell cytotoxicity, dose response, cytotoxicity control for Shn3 inhibitor project, CellTiter-Glo, cherry-picked (AID 624134); assay type: functional, cell-based
[15] = Shn3 3'UTR reporter inhibitors, dose response, cell-based, Clone20 osteoblasts, firefly luciferase, cherry-picked (AID 624132); assay type: functional;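 note: firefly luciferase luminescence from reporter carrying the Shn3 3'UTR in osteoblasts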
[16] = growth suppression of beta-catenin-knockout colon cells, dose response, cell-based, HCT116, human colon tumor (AID 1045); assay type: functional;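 note: HCT116 colon tumor cells with beta catenin knocked out; cells exposed to compound for 60 hours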
INS1 = assay: beta cell apoptosis inhibitors, cytokine rescue, dose response, luminescence, retest (AID 449756); assay type: functional, cell-based; conditions: Rattus norvegicus;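 note: cell death triggered by IL-1 beta plus TNF-alpha plus IFN-gamma mixture; protective hits raise ATP signal compared with cytokine alone wells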
[17] = Luminescence Cell-Based Dose Retest to Confirm Inhibitors of Cancer Stem Cells. [Related pubchem assays (depositor defined):AID2717, AID2721]; assay type: functional; conditions: Homo sapiens
[18] = microbe, parasite or virus in culture; assay type: functional; conditions: Mycobacterium tuberculosis
[19] = growth suppression of PTEN-null colon cells, dose response, cell-based, HCT116 PTEN knockout (AID 1047); assay type: functional;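 note: HCT116 colon tumor cells with PTEN knocked out; cells exposed to compound for 60 hours before readout; potency for loss of cell viability measured by luminescence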
[20] = control 3'UTR Renilla luciferase suppression, dose response, counter-screen for Shn3 inhibitor project, cell-based, Clone20-Shn3RL, cherry-picked (AID 624133); assay type: functional
Cytochrome P450 3A4 = Cytochrome P450 3A4 (Homo sapiens, UniProt P08684);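 note: CYP3A4 tested as one member of a cytochrome P450 panel screen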
Chain of Cytochrome P450 3A4 (P08684 whole entry): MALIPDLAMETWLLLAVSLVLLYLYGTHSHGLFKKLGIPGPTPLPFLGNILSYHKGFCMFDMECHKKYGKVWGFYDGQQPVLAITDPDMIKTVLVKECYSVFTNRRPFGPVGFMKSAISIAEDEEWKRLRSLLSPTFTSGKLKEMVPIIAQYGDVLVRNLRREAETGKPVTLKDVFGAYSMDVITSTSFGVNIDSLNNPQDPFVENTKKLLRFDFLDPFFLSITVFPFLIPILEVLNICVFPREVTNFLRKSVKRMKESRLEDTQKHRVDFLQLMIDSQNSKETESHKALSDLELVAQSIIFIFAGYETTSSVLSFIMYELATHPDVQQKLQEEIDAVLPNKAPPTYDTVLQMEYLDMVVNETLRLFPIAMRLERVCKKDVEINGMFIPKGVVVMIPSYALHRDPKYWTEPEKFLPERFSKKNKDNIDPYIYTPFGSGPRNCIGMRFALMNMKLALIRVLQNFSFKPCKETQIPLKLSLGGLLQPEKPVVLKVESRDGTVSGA

Cytochrome P450 2C19 = Cytochrome P450 2C19 (Homo sapiens, UniProt P33261); assay: Cytochrome panel assay with activity outcomes. Panel member name: p450-cyp2c19 Compounds with AC50 equal or less than 10 uM are considered active; assay type: functional; conditions: read-out: AC50
Chain of Cytochrome P450 2C19 (P33261 whole entry): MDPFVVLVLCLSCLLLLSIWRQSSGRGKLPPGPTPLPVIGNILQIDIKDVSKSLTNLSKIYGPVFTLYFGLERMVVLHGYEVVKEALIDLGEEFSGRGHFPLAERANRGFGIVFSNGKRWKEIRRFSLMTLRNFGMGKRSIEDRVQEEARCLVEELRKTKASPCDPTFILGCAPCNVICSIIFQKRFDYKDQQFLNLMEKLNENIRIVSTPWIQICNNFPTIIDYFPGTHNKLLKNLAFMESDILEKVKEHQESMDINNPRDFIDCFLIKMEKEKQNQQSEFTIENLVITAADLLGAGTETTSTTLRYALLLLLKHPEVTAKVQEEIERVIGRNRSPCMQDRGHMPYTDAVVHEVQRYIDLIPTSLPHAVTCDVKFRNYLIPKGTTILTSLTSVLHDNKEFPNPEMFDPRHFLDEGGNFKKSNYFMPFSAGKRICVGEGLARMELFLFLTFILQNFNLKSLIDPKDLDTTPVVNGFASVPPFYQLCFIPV

Cytochrome P450 1A2 = target: T5, Cytochrome P450 1A2 (Homo sapiens, UniProt P05177);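 note: PubChem cytochrome P450 panel assay, CYP1A2 panel member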
T5 sequence (P05177 whole entry): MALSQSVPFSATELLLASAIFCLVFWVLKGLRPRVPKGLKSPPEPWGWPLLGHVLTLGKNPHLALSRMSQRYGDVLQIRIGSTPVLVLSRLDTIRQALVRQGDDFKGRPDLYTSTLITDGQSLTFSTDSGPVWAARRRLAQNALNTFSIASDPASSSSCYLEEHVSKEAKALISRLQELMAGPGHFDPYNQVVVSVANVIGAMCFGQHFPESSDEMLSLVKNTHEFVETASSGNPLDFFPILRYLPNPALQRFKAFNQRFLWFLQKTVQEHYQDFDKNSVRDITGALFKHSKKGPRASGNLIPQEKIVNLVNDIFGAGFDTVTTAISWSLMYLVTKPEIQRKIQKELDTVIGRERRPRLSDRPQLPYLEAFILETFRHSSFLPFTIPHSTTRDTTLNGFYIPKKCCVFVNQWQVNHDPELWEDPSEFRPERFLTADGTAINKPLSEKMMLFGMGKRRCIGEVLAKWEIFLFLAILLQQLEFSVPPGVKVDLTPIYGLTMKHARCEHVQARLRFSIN

Cc1[nH]c2ccc(C(=O)Nc3ccncc3)cc2c1C
EC50 [1]: > 50 µM (active)

Cc1nc2scc(C)n2c(=O)c1S(=O)(=O)N1CCN(c2cccc(C(F)(F)F)c2)CC1
EC50 [1]: > 50 µM (active)
EC50 [2]: > 195 µM (not active)

Cc1cc(C(F)F)n2nc(C(=O)Nc3sc4c(c3C(N)=O)CCC4)nc2n1
IC50 [3]: 40 µM (active)

CCC1CCCCN1Cc1nc2c(c(=O)n(C)c(=O)n2C)n1Cc1ccccc1 (configuration not stated)
EC50 [4]: 3.76 µM (active)

CCCCOC(=O)Nc1nnc(SCCOc2ccc(C)cc2)s1
IC50 [5]: > 64 µM (inactive)

Cc1ccc(NC(=O)c2ccccc2)s1
EC50 [1]: > 50 µM (active)

O=[N+]([O-])c1ccccc1/C=C/C=N/Nc1nc(N2CCCCC2)nc(N2CCCCC2)n1
IC50 [6]: 1.14 µM (active)
IC50 [7]: 0.814 µM (active)

COC(=O)c1cc(NC(S)=Nc2cc(Cl)cc(Cl)c2)cc(C(=O)OC)c1
IC50 [8]: > 66 µM (inactive)
IC50 [9]: > 66 µM (inactive)

Cn1cccc1-c1nc2cc(NC(=O)c3ccccc3)ccc2[nH]1
EC50 [10]: > 79.4 µM (not active)
EC50 [11]: > 79.4 µM (not active)
EC50 [12]: > 79.4 µM (not active)

CCCCN(C(=O)Cn1ncc(Cl)c(Cl)c1=O)c1c(N)n(CC(C)C)c(=O)[nH]c1=O
IC50 [13]: 5.74 µM (active)

c1cncc(CNC2CCCC2)c1
EC50 [10]: > 79.4 µM (not active)
EC50 [11]: > 79.4 µM (not active)
EC50 [12]: > 79.4 µM (not active)

CC12CC3(C)CC(C)(C1)CC(C(=O)NC(=S)N1CCCC1)(C2)C3
IC50 [5]: 50 µM (inactive)

O=C(Nc1ccc(F)cc1)C1CCC(CNc2c(N3CCCCC3)c(=O)c2=O)CC1 (configuration not stated)
EC50 [1]: > 50 µM (active)

CCCCCc1nc2c(c(=O)c3ccccc3n2C)c(=O)n1C1CCCCCC1
AC50 [14]: 42.3 µM (active)
AC50 [15]: 8.21 µM (active)
EC50 [16]: 6.38 µM (active)
AC50 (INS1): 7.76 µM (active)
AC50 [17]: 3.56 µM (active)
CC50 [18]: 10.4 µM (active)
EC50 [19]: 7.59 µM (active)
AC50 [20]: 5.56 µM (active)

Cc1cccc(NC(=O)Cn2cc(C(=O)C3CC3)c3ccccc32)c1C
AC50 [14]: 66 µM (active)
AC50 [15]: 2.39 µM (active)
AC50 [20]: 3.05 µM (active)

Cc1cc(NC(=O)c2ccc3[nH]c(C)c(C)c3c2)ccn1
EC50 [1]: > 50 µM (active)

O=C(NCCc1ccccc1)c1cc2ncc(Br)cn2n1
IC50 [6]: 12.8 µM (active)
IC50 [7]: > 100 µM (inactive)

COc1ccc(CN2CCN(Cc3ccc(C(F)(F)F)cc3)CC2)c(OC)c1
EC50 [4]: 2.66 µM (active)

O=C1c2ccccc2NC(c2cccc([N+](=O)[O-])c2)N1CCc1ccccc1 (configuration not stated)
EC50 [1]: > 50 µM (active)

CCN(CC)CC(=O)Nc1ccc(Cl)cc1C(=O)c1ccccc1
EC50 [4]: 2.37 µM (active)

Cc1ccc(CSc2nc3c(cc2C#N)CCC3)cc1
EC50 [10]: 28.5 µM (not active)
EC50 [11]: 47.6 µM (not active)
EC50 [12]: 42.7 µM (not active)

CCSCc1nnc(SCC(=O)Nc2ccc(OC)cc2)n1C
IC50 [6]: 3.08 µM (active)
IC50 [7]: 4.91 µM (active)

CN(C)CCCN(Cc1cc2cc3c(cc2nc1O)OCO3)C(S)=NCc1ccco1
EC50 [4]: 0.421 µM (active)

COc1ccccc1N(C(=O)c1snc(C(N)=O)c1N)C(C(=O)NC1CCCC1)c1ccc2ncccc2c1 (configuration not stated)
EC50 [4]: 2.66 µM (active)

O=C(CN1C(=O)/C(=C2\SC(=S)N(C3CCS(=O)(=O)C3)C2=O)c2ccccc21)Nc1ccc(F)cc1 (configuration not stated)
IC50 [3]: 3.55 µM (active)

CCc1noc(C)c1C(=O)NNC(=O)c1cc(OC)c(OC)c(OC)c1
IC50 [6]: 21.3 µM (active)
IC50 [7]: 13.9 µM (active)

CCN1CCN(c2ccc(S(=O)(=O)N3CCCCC3)cc2NC(=O)/C=C/c2ccc(F)cc2)CC1
IC50 [6]: 4.6 µM (active)
IC50 [7]: 7.23 µM (active)

O=C(Nc1ccc(S(=O)(=O)N2CCCC2)cc1)c1cccnc1
EC50 [1]: > 50 µM (active)

Cn1c(=O)c2c(ncn2CCNC2=NCCCCC2)n(C)c1=O
EC50 [10]: > 79.4 µM (not active)
EC50 [11]: > 79.4 µM (not active)
EC50 [12]: > 79.4 µM (not active)

CC(C)C(=O)N1C2CCC1CC(O)(c1ccc(F)cc1)C2 (configuration not stated)
AC50 (Cytochrome P450 3A4): 22.4 µM (inconclusive)
AC50 (Cytochrome P450 2C19): 20 µM (inconclusive)
AC50 (Cytochrome P450 1A2): 17.8 µM (inconclusive)
EC50 [10]: > 79.4 µM (not active)
EC50 [11]: > 79.4 µM (not active)
EC50 [12]: > 79.4 µM (not active)

Cc1ccc(C23CC4CC(CC(CN)(C4)C2)C3)cc1
IC50 [5]: 50 µM (inactive)

CCCN(CC(=O)Nc1ccccc1C)C(=O)COC(=O)CSc1ccc([N+](=O)[O-])cc1
IC50 [8]: > 66 µM (inactive)
IC50 [9]: > 66 µM (inactive)
